Experimental data: patent US20240101551A1, “CRYSTAL FORM AND SALT FORM OF BROMINE DOMAIN PROTEIN INHIBITOR AND PREPARATION METHOD THEREFOR” (CHIA TAI TIANQING PHARMACEUTICAL GROUP CO., LTD., priority 2020, published 2024)

Experiments:
BRD4 (BD2) = BRD4 (BD2) (Homo sapiens (Human), UniProt O60885); assay: In vitro enzymatic activity assay on BRD4 (BD2), HTRF; format: binding; conditions: GST-BRD4 (BD2, 349-460 aa)
Procedure: In the present application, the IC50 value of the compound of formula (I) in inhibiting BRD4 (BD2) enzyme binding reaction were determined by homogeneous time resolved fluorescence (HTRF). The compound of formula (I) was serially diluted 5-fold with 100% DMSO starting from 1 mM (7 concentrations in total), and then 2 μL of the compound of formula (I) at each concentration was added to 18 μL of a reaction buffer (20 mM HEPES pH 7.5, 150 mM NaCl, 5 mM DTT, 0.005% Tween 20, and 100 μg/mL BSA) for dilution. After being mixed well, 2 μL of the compound of formula (I) at each concentration was added to 48 μL of the above reaction buffer for dilution, and mixed well (final concentration of the compound of formula (I) in DMSO: 0.1%). […] After being incubated in the incubator for another 1 hour, the fluorescence values (excited at 320 nm, emitted light at 665 nm and 620 nm being detected, and the ratio of the two being the enzyme binding signal) were read on Envision (purchased from PerkinElmer). The binding strength of the compound of formula (I) to BRD4 (BD2) protein was determined respectively at 7 concentrations, and the data were calculated using GraphPad Prism software to obtain the IC50 value of the compound of formula (I).

BRD4 (BD1) = BRD4 (BD1) (Homo sapiens (Human), UniProt O60885); assay: In vitro enzymatic activity assay on BRD4 (BD1), HTRF; format: binding; conditions: GST-BRD4 (BD1, 44-168 aa)
Procedure: In the present application, the IC50 value of the compound of formula (I) in inhibiting BRD4 (BD1) enzyme binding reaction were determined by homogeneous time resolved fluorescence (HTRF). The compound of formula (I) was serially diluted 5-fold with 100% DMSO starting from 0.2 mM (7 concentrations in total), and then 2 μL of the compound of formula (I) at each concentration was added to 48 μL of a reaction buffer (20 mM HEPES pH 7.5, 150 mM NaCl, 5 mM DTT, 0.005% Tween 20, and 100 μg/mL BSA) for dilution, and mixed well. 2.5 μL of the resulting mixture was added to a 384-well plate (OptiPlate-384, purchased from PerkinElmer), then 5 μL of GST-BRD4 (BD1, 44-168 aa) (final concentration: 1 nM) was added, and the resulting mixture was centrifuged, and fully mixed. […] After being incubated in the incubator for another 1 hour, the fluorescence values (excited at 320 nm, emitted light at 665 nm and 620 nm being detected, and the ratio of the two being the enzyme binding signal) were read on Envision (purchased from PerkinElmer). The binding strength of the compound of formula (I) to BRD4 (BD1) protein was determined respectively at 7 concentrations, and the data were calculated using GraphPad Prism software to obtain the ICso value of the compound of formula (I).

[1] = Animal pharmacokinetic study; format: in vivo, rats
Procedure: Three healthy adult male rats that obtained from Beijing Vital River Laboratory Animal Technology Co., Ltd were used for the animal pharmacokinetic experiment. The compound of formula (I) was suspended in 2% absolute ethanol, 5% tween 80, 20% polyethylene glycol 400, and 73% (5% hydroxypropylmethyl cellulose in water) (V/V/V/V) at a concentration of 1 mg/mL. The administration volume was 5 mL/kg, and animals were treated with a single intragastric administration at a dose of 5 mg/kg Animals were fasted overnight prior to the experiment, and the fasting time was from 10 hours before administration to 4 hours after administration. Blood was sampled at 0.25, 0.5, 1, 2, 4, 6, 8 and 24 hours after administration Animals were lightly anesthetized with isoflurane, and approximately 0.4 mL of whole blood was collected from the orbital venous plexus using a glass blood collection tube, and placed in a heparin anticoagulation tube. The sample was centrifuged at 4200 rpm for 5 minutes at 4° C., and then the plasma was transferred to a centrifuge tube and stored at −80° C. until analyzed. In the plasma sample analysis, test compound and internal standard (warfarin or propranolol) were extracted from rat plasma by acetonitrile protein precipitation, and the extracts were analyzed by LC/MS/MS. The measured plasma concentration-time data of the individual animals were analyzed using a non-compartmental model of WinNonlin (version no. 5.2.1; Pharsight) software to give pharmacokinetic parameters as shown in Table 17 below: the maximum (peak) plasma drug concentration C,max; the time to peak Tmax; the half-life T1/2 and the area under the plasma concentration-time curve extrapolated to infinity AUC0-inf.

[2] = Study on stability under influencing factors (high temperature, high humidity, light) of the crystal forms; format: physicochemical
Procedure: In order to evaluate the solid stability of the crystal forms of the present application, the stability of each of the crystal form I, the crystal form A, the crystal form D, the crystal form E and the crystal form F under influencing factors (high temperature, high humidity and light) was investigated. Each of the crystal forms was stored under the high temperature condition (60±2° C., open (weighing bottle)), and the high humidity condition (room temperature, 92.5%±5% RH, open (weighing bottle) and packaged) for 5 days, 10 days and 30 days, and under the ICH light condition (5500 Lux, 0.9 w/m^2, closed (weighing bottle) and packaged) for 5 days and 10 days. The inner packaging material of the packaged sample was a medical low-density polyethylene bag, and the outer packaging material is a medical polyester/aluminum/polyethylene composite bag. The samples after the storage were characterized by properties, purity (HPLC), crystal form (XRD) and water content to detect the changes in the crystal form and purity. The results are shown in Tables 8-12 (“^#” indicates the ICH condition).

[3] = rat, po, male rats, single intragastric administration, 5 mg/kg, plasma
[4] = Light (ICH, 5500 Lux), closed, 5 days
[5] = Light (ICH, 5500 Lux), closed, 10 days
[6] = 92.5% RH, room temperature, open, 10 days
[7] = 92.5% RH, room temperature, open, 30 days

Crystal form change ([2]; Light (ICH), packaged, 10 days)	Impurity content ([2]; Light (ICH), packaged, 10 days) [%]	Water content ([2]; Light (ICH), packaged, 10 days) [%]	Impurity content [2, 4] [%]	Crystal form change [2, 5]	Impurity content [2, 5] [%]	Water content [2, 5] [%]	Impurity content ([2]; starting crystal form) [%]	Water content ([2]; starting crystal form) [%]	Impurity content ([2]; 60° C., open, 5 days) [%]	Crystal form change ([2]; 60° C., open, 10 days)	Impurity content ([2]; 60° C., open, 10 days) [%]	Crystal form change ([2]; 60° C., open, 30 days)	Impurity content ([2]; 60° C., open, 30 days) [%]	Structure (SMILES)	further results
–	–	–	–	–	–	–	0.18	–	0.20	Unchanged	0.21	Unchanged	0.21	Cn1cc(-c2nc(N=S(C)(C)=O)ccc2Oc2ccc(F)cc2F)c2cc[nH]c2c1=O [crystal form E]	–
–	–	–	–	–	–	–	0.17	–	0.18	Unchanged	0.20	Unchanged	0.22	Cn1cc(-c2nc(N=S(C)(C)=O)ccc2Oc2ccc(F)cc2F)c2cc[nH]c2c1=O [crystal form F]	–

The remaining lines, values behind:

Structure (SMILES)	Crystal form change ([2]; Light (ICH), packaged, 10 days)	Impurity content ([2]; Light (ICH), packaged, 10 days) [%]	Water content ([2]; Light (ICH), packaged, 10 days) [%]	Impurity content [2, 4] [%]	Crystal form change [2, 5]	Impurity content [2, 5] [%]	Water content [2, 5] [%]	Impurity content ([2]; starting crystal form) [%]	Water content ([2]; starting crystal form) [%]	Impurity content ([2]; 60° C., open, 5 days) [%]	Crystal form change ([2]; 60° C., open, 10 days)	Impurity content ([2]; 60° C., open, 10 days) [%]	Crystal form change ([2]; 60° C., open, 30 days)	Impurity content ([2]; 60° C., open, 30 days) [%]	further results
Cn1cc(-c2nc(N=S(C)(C)=O)ccc2Oc2ccc(F)cc2F)c2cc[nH]c2c1=O [Compound of formula (I), 4-{3-(2,4-difluorophenoxy)-6-{[dimethyl(oxo)-λ^6-sulfaneylidene]amino}-pyridin-2-yl}-6-methyl-1,6-dihydro-7H-pyrrolo[2,3-c]pyridin-7-one]	–	–	–	–	–	–	–	–	–	–	–	–	–	–	IC50 (BRD4 (BD2)): 0.25 nM; IC50 (BRD4 (BD1)): 0.64 nM; AUC(0-inf) [1, 3]: 3470 ng·h/mL; Cmax [1, 3]: 372 ng/mL; Tmax [1, 3]: 2.67 h; half-life [1, 3]: 5.25 h; Pharmacokinetic properties (conclusion) ([1]; rats, 5 mg/kg intragastric): good pharmacokinetic properties
Cn1cc(-c2nc(N=S(C)(C)=O)ccc2Oc2ccc(F)cc2F)c2cc[nH]c2c1=O [crystal form A]	Unchanged	1.32	6.6	1.32	Unchanged	1.35	8.1	1.30	5.8	–	–	–	–	–	–
Cn1cc(-c2nc(N=S(C)(C)=O)ccc2Oc2ccc(F)cc2F)c2cc[nH]c2c1=O [crystal form D]	Unchanged	0.08	1.2	0.11	Unchanged	0.09	1.1	0.05	1.4	0.19	Unchanged	0.27	Unchanged	0.44	Water content ([2]; 60° C., open, 10 days): 1.0%; Water content ([2]; 60° C., open, 30 days): 0.68%; Crystal form change ([2]; 92.5% RH, packaged, 30 days): Unchanged; Impurity content ([2]; 92.5% RH, packaged, 30 days): 0.12%; Water content ([2]; 92.5% RH, packaged, 30 days): 1.0%; Impurity content ([2]; 92.5% RH, room temperature, open, 5 days): 0.07%; Crystal form change [2, 6]: Unchanged; Impurity content [2, 6]: 0.06%; Water content [2, 6]: 2.0%; Crystal form change [2, 7]: Unchanged; Impurity content [2, 7]: 0.07%; Water content [2, 7]: 1.9%
